Data from patent publication US6559160B1, “Compounds and methods for modulating cxcr3 function” (Chemocentryx, Inc., priority 1999, dated 2003).

target: T1, CXCR3 (Homo sapiens, UniProt P49682); assay: CXCR3 binding assay: inhibition of 125I-IP-10 binding to CXCR3-expressing cells; settings: concentration required to reduce binding of labeled IP-10 to the receptor by 50%, approx. 3 hours at 4° C.
T1 construct: CXCR3-expressing cells were prepared according to standard methods and used in most assays
T1 sequence (P49682 1-368): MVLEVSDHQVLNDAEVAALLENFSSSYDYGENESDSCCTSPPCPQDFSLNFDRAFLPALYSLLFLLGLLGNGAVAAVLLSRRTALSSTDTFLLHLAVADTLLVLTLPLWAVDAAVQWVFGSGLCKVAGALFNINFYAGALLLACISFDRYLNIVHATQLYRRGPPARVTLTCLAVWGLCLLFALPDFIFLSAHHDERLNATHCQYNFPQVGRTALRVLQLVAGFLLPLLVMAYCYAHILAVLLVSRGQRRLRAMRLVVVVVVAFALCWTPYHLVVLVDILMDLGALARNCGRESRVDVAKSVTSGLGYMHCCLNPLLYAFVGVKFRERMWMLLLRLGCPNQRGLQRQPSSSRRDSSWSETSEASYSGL
Method: Source plates of chemical libraries were obtained from commercial vendors and contained individual compounds at 5 mg/mL in DMSO, or in some instances, at 1 mg/mL. From these, multiple compound plates containing 10 compounds in each well were made, and these were diluted in 20% DMSO to a concentration of 50 μg/mL (10 μg/mL for those beginning at 1 mg/mL). An aliquot of 20 μL of each mixture was put into the test plates, which were stored frozen until use.
CXCR3-expressing cells were prepared according to standard methods and used in most assays. The cells were cultured in IMDM-5% FBS, and harvested when the concentration was between 0.5-1.0×10^6 cells/mL. The cells were centrifuged and resuspended in assay buffer (20 mM HEPES, 80 mM NaCl, 1 mM CaCl2, 5 mM MgCl2, and with 0.2% bovine serum albumin, pH 7.1) to a concentration of 5.6×10^6 cells/mL. Using a Multi-Probe automated system, 0.09 mL of cells was added to each well of the assay test plates containing the compounds, followed by 0.09 mL of ^125I-Ip-10 (from New England Nuclear) diluted in assay buffer (final concentration ˜25-100 pM, with ˜50,000 cpm per well). The final concentration of the compounds was 1-5 μg/mL each. The plates were sealed and incubated for approximately 3 hours at 4° C. on a shaker platform. (In some experiments radiolabeled MIG was used.) The assay plates were harvested using Packard filter plates, pre-soaked in PEI solution, on the vacuum harvest apparatus. Scintillation fluid (35 μL) was added to each of the wells, the plates were sealed and counted in a Top Count scintillation counter. Control wells contained either diluent only (for total counts) or excess IP-10 (1 μg/mL, for non-specific binding) and were used to calculate the percent of total inhibition for each set of compounds. Further tests on individual compounds were carried out in the same manner. IC50 values are those concentrations required to reduce the binding of labeled IP-10 to the receptor by 50%.
The binding of IP-10 or MIG to CXCR3 was first optimized by testing various pH and salt concentrations for their effect in a homologous competition assay. Maximum binding of radiolabeled MIG takes place under low salt (80 mM) conditions, as compared to normal salt (140 mM), while there is no difference between pH 7.1 and 7.4.

| IC50 [nM] | SMILES |
| --- | --- |
| > 5000 | CCCCCC(=O)N(CCN(C)C)C(C)c1nc2ccccc2c(=O)n1-c1ccc(F)cc1 (stereo not shown) [Compound 1.1] |
| 800 to 5000 | CCCCCCCCCCCC(=O)N(CCN(C)C)C(C)c1nc2ccccc2c(=O)n1-c1ccc(Cl)cc1 (stereo not shown) [Compound 1.13] |
| 800 to 5000 | CCCCCCC(=O)N(CCN(C)C)C(C)c1nc2ccccc2c(=O)n1-c1ccc(OC)cc1 (stereo not shown) [Compound 1.3] |
| 800 to 5000 | CCCCCCCC(=O)N(CCN(C)C)C(C)c1nc2ccccc2c(=O)n1-c1ccc(Br)cc1 (stereo not shown) [Compound 1.4] |
| > 5000 | CCCCCCCCCC(=O)N(CCN(C)C)C(C)c1nc2ccccc2c(=O)n1-c1ccccc1 (stereo not shown) [Compound 1.12] |
| ≤ 800 | CCCCCCCCCCCCCC(=O)N(CCN(C)C)C(C)c1nc2ccccc2c(=O)n1-c1ccc(OC)cc1 (stereo not shown) [Compound 1.15] |
| 800 to 5000 | CCCCCCCC(=O)N(CCN(C)C)C(C)c1nc2ccccc2c(=O)n1-c1ccc(OC)cc1 (stereo not shown) [Compound 1.5] |
| ≤ 800 | CCCCCCCCCCCCCC(=O)N(CCN(C)C)C(C)c1nc2ccccc2c(=O)n1-c1ccc(F)cc1 (stereo not shown) [Compound 1.14] |
| ≤ 800 | CCCCCCCCCC(=O)N(CCN(C)C)C(C)c1nc2ccccc2c(=O)n1-c1ccc(F)cc1 (stereo not shown) [Compound 1.11] |
| > 5000 | CCCCCCCCC(=O)N(CCN(C)C)C(C)c1nc2ccccc2c(=O)n1-c1ccc(C)cc1 (stereo not shown) [Compound 1.7] |
| ≤ 800 | CCCCCCCCC(=O)N(CCN(C)C)C(C)c1nc2ccccc2c(=O)n1-c1ccc(OC)cc1 (stereo not shown) [Compound 1.9] |
| ≤ 800 | CCCCCCCCC(=O)N(CCN(C)C)C(C)c1nc2ccccc2c(=O)n1-c1ccc(Cl)cc1 (stereo not shown) [Compound 1.10] |
| 800 to 5000 | CCCCCCCC(=O)N(CCN(C)C)C(C)c1nc2ccccc2c(=O)n1-c1ccc(F)cc1 (stereo not shown) [Compound 1.6] |
| > 5000 | CCCCCCC(=O)N(CCN(C)C)C(C)c1nc2ccccc2c(=O)n1-c1ccc(F)cc1 (stereo not shown) [Compound 1.2] |

tested on: 5 other chemokine receptors on activated lymphocytes; assay: Signalling (calcium mobilization) by other chemokines on activated lymphocytes; format: cell-based, human; settings: not given
Method: Calcium mobilization assays were performed by labeling human peripheral blood lymphocytes (cultured in 10 ng/mL IL-2 for at least 12 days) with INDO-1 dye (45 min at room temperature), washing with PBS, and resuspending into flux buffer (HBSS with 1% fetal bovine serum). For each test, 1×10^6 cells were incubated at 37° C. in the cuvette of a PTI spectrometer, and the ratio of 400/490 nm emission was plotted over time (typically 2-3 minutes), with compounds added at 5 seconds, followed by IP-10 or other chemokines.

| SMILES | interference with signalling by other chemokines |
| --- | --- |
| CCCCCCCCCC(=O)N(CCN(C)C)C(C)c1nc2ccccc2c(=O)n1-c1ccc(F)cc1 (stereo not shown) [Compound 1.11] | did not interfere with signalling by those chemokines |

tested on: not given; assay: not given; settings: not given

| melting point [°C] | SMILES |
| --- | --- |
| 106.7 | CCCCCCCCCC(=O)N(CCN(C)C)C(C)c1nc2c(OC)c(OC)c(OC)cc2c(=O)n1-c1ccc(F)cc1 (stereo not shown) [Compound 4.7] |
| 121 | CCCCCCCCCC(=O)N(CCN(C)C)C(C)c1nc2ccc(C)cc2c(=O)n1-c1ccc(F)cc1 (stereo not shown) [Compound 4.4] |
| 124.2 | CCCCCCCCCC(=O)N(CCN(C)C)C(C)c1nc2ccc(OC)cc2c(=O)n1-c1ccc(OC)cc1 (stereo not shown) [Compound 4.1] |
| 122.9 | CCCCCCCCCC(=O)N(CCN(C)C)C(C)c1nc2ccc(Cl)cc2c(=O)n1-c1ccc(F)cc1 (stereo not shown) [Compound 4.5] |
